Measured values: patent US8461171B2, “Hybrid opioid compounds and compositions” (QRxPHARMA Ltd., priority 2010, dated 2013)

Key:
Type in all cases: in vivo
[1] = tested on: CD1 mice; assay: Oral antinociception in CD1 mice (tail flick), morphine/oxycodone alone, combined or as prodrugs; conditions: for oral antinociceptive activity (in words): CD1 mice
[2] = tested on: CD1 mice; assay: 24-hour tolerance study after icv administration in CD1 mice; conditions: for MPE still present after 24 hours: 24 hours after icv administration
[3] = tested on: CD1 mice; assay: Intracerebroventricular (icv) antinociceptive activity in CD1 mice; conditions: for Icv ED50 values: CD1 mice, confidence range in brackets
[4] = tested on: CD1 mice; assay: Behavioral observations after icv administration
Description: These curves enabled the determination of ED50 values. […] Some behavioral observations are also reported.
This behavior was not observed 10 minutes post injection. […] The animals were active for about two hours. After 24 hours, the animals maintained about 20% MPE.

SMILES	oral antinociceptive activity (in words) ([1]; oral)	MPE still present after 24 hours [2]	24-h Tolerance Study, outcome ([2]; icv)	24-h Tolerance Study, Day 1 ([2]; icv, Day 1)	24-h Tolerance Study, Day 2 ([2]; icv, Day 2)	peak time (pt), time to maximum effect [3] [min]	Icv ED50 values [3]	also measured
COc1ccc2c3c1O[C@H]1C(=NOC(=O)O[C@H]4C=CC5C6Cc7ccc(O)c8c7[C@@]5(CCN6C)[C@H]4O8)CC[C@@]4(O)C(C2)N(C)CC[C@]314 (stereo partly shown) [MLN II-45]	the same activity as when oxycodone and morphine are administered together in a 1:1 ratio							
CN1CC[C@]23c4c5ccc(O)c4O[C@H]2[C@@H](NC(=O)COCCOCCn2cc(COCC(=O)N[C@H]4CC[C@@]6(O)C7Cc8ccc(O)c9c8[C@@]6(CCN7C)[C@H]4O9)nn2)CC[C@@]3(O)C1C5 [MLN II-83]		20 ± 10 % MPE	seems to induce some tolerance	67.95 ± 13.62	48.35 ± 15.68	20	0.190 nmol/mouse (0.065-0.558)	
COc1ccc2c3c1O[C@H]1/C(=N/OCC(=O)O[C@H]4C=CC5C6Cc7ccc(O)c8c7[C@@]5(CCN6C)[C@H]4O8)CC[C@@]4(O)C(C2)N(C)CC[C@]314 (stereo partly shown) [MLN II-31]	weak antinociceptive activity							maximum antinociception ([1]; 10 mg/kg, 4 hours after oral administration): 25%; antinociceptive activity ([1]; oral, measured from 15 min to 24 hours): 7-20 % of MPE
CN1CC[C@]23c4c5ccc(O)c4O[C@H]2[C@@H](NC(=O)COCCOCCOCc2cn(CCOCCOCC(=O)N[C@H]4CC[C@@]6(O)C7Cc8ccc(O)c9c8[C@@]6(CCN7C)[C@H]4O9)nn2)CC[C@@]3(O)C1C5 [MLN II-121]		about 20 % MPE				10	0.272 nmol/mouse (0.164-0.453)	MPE still present after 24 hours ([2]; listed as MLN II- 121): 23.06 ± 4.30 % MPE; 48 hour tolerance test, outcome ([2]; icv, 48 hour test): No tolerance; 48 hour tolerance test, Day 1 ([2]; icv, 48 hour test, Day 1): 90.00 ± 10.69; 48 hour tolerance test, Day 2 ([2]; icv, 48 hour test, Day 2): 80.41 ± 12.06; behavioral observations ([4]; after icv administration): pacing and had straub tails; time the animals were active ([4]; after icv administration): about two
CN1CC[C@]23c4c5ccc(O)c4O[C@H]2[C@@H](O)C=C[C@H]3[C@H]1C5 [Morphine, reference compound]						10	2.68 nmol/mouse	peak time [pt] [3]: 10 ′
CN1CC[C@]23c4c5ccc(O)c4O[C@H]2[C@@H](NC(=O)COCCOCc2cn(CCOCCOCC(=O)N[C@@H]4CC[C@@]6(O)C7Cc8ccc(O)c9c8[C@@]6(CCN7C)[C@H]4O9)nn2)CC[C@@]3(O)C1C5 [MLN II-120]			No tolerance	95.65 ± 4.65	91.38 ± 13.08	10	0.571 nmol/mouse (0.423-0.770)	animals showing barrel rolling and out stretched limbs ([4]; with 2 minutes of icv injection, not observed 10 minutes post injection): about 50%
